In brackets after ≈: the same amount, converted by molar mass.
Tests used:
B. subtilis = B. subtilis bacterial inhibition (paper disc, agar plate); details: Bacillus subtilis, read-out: Zone (mm.) inhibition
Procedure: The assay for B. subtilis bacterial inhibition was obtained on plates with B. subtilis UC 564 spores in agar with the following composition per liter:
After autoclaving, 10 ml. of 20% glucose was added. The seeding rate was approximately 10^9 spores per liter. Test solutions were applied to 1/2-inch paper discs (Schleicher & Schuell 740E) with 0.08 ml. per disc.

E. coli RNA polymerase = E. coli RNA polymerase (Escherichia coli, UniProt P0A8V2); assay: Bacterial RNA polymerase inhibition; type: biochemical
Procedure: The assay for bacterial RNA polymerase followed the procedure of Reusser (J. Bacterial., 105, 580 (1971)). Assay mixtures were prepared containing in a total volume of 0.25 ml.: Tris-hydrochloride buffer, pH 7.9, 5 μmoles; MgCl2, 1 μmole; mercaptoethanol, 3 μmoles; MnCl2, 0.25 μmole; guanosine triphosphate, cytidine triphosphate, uridine triphosphate, 0.1 μmole each; adenosine triphosphate 8-14C, 0.1 μmole containing 0.05 μCi; dAT, 0.2 units; polymerase, ~35 μg. The reaction mixtures were incubated at 30° C for 15 min.

AKR cells = assay: AKR growth inhibition (AKR cells in culture); type: cell-based; details: 37° C, 3 days, concentration not given
Procedure: The assay for inhibition of AKR cells in culture was as follows. Four ml. of cells (ca. 1×10^4 cells/ml.) were pipetted into sterilized plastic culture tubes with screw caps (16×125 mm.; Falcon Plastics, Oxnard, California). The experiment was initiated by adding 1.0 ml. of medium or drug at different concentrations and incubating at 37° C for 3 days. Cell growth was determined twice a day for 3 days. The percent inhibition was calculated from the controls (no drug).

[1] = tested on: reverse transcriptase (RNA-directed DNA polymerase); assay: Reverse transcriptase (RNA-directed DNA polymerase) inhibition; type: biochemical; details: concentration not given
Description: The assay and work-up conditions for reverse transcriptase analysis were essentially those described by Brockman, et al., (Nature, 230, 249 (1971)), except for eliminating the phosphate from the washing solution (10% trichloroacetic acid).

S. lutea = S. lutea bacterial inhibition (MIC, broth dilution); type: cell-based; details: Micrococcus luteus; 37°, 16-18 hours
Procedure: The assay for S. lutea inhibition was as follows. Water-soluble preparations were dissolved in brain heart infusion broth (Difco) to 1 mg./ml. Water-insoluble preparations were dissolved (or suspended) in dimethylformamide to 10 mg./ml. and diluted with brain heart broth to 1 mg./ml. Two-fold serial dilutions were made with broth starting with 1 mg./ml. with final volumes of 01. ml. per dilution. Overnight bacterial cultures were diluted 1:20,000 with brain heart and 0.1 ml. of diluted culture was added to each dilution of antibiotic (final total volume was 0.2 ml.). This was all done in plastic microtest plates (Microtest II Tissue Culture Plate, Bioquest). The plates were incubated at 37° for 16-18 hours and the minimum inhibitory concentrations (MIC) were recorded as the smallest concentration in which no visible growth occurred.

[2] = tested on: DNA-directed DNA polymerase; assay: DNA-directed DNA polymerase inhibition; type: biochemical; details: concentration not given
Procedure: The assay and work-up conditions for DNA polymerase were essentially those described by Magee (Virology, 17, 604 (1962)). The reaction mixture contained […]: potassium phosphate (pH 7.4), 15; EDTA, 2; ATP, 0.05; Mg^++, 2.5; triphosphates of CdR, deoxyguanosine, and AdR, 0.01 each; TdR triphosphate-^3 H, 0.01 (100 mCi/mmol.); DNase-treated E. coli DNA, 0.2 mg.; and cell sonicate, 0.2 mg. protein in a total volume of 0.5 ml. After incubation at 37° C for up to 60 minutes with continual gentle shaking, the reactions were stopped by the addition of carrier DNA […] and PCA (to 0.5 N) containing 2% Celite. The pellet was washed with PCA, dissolved in 1 N NaOH, reprecipitated and washed with PCA, extracted with 0.15 ml. 0.5 N PCA (70°) for 20 minutes, and counted in 12 ml. of Diotol.

Chain of E. coli RNA polymerase (P0A8V2 whole entry): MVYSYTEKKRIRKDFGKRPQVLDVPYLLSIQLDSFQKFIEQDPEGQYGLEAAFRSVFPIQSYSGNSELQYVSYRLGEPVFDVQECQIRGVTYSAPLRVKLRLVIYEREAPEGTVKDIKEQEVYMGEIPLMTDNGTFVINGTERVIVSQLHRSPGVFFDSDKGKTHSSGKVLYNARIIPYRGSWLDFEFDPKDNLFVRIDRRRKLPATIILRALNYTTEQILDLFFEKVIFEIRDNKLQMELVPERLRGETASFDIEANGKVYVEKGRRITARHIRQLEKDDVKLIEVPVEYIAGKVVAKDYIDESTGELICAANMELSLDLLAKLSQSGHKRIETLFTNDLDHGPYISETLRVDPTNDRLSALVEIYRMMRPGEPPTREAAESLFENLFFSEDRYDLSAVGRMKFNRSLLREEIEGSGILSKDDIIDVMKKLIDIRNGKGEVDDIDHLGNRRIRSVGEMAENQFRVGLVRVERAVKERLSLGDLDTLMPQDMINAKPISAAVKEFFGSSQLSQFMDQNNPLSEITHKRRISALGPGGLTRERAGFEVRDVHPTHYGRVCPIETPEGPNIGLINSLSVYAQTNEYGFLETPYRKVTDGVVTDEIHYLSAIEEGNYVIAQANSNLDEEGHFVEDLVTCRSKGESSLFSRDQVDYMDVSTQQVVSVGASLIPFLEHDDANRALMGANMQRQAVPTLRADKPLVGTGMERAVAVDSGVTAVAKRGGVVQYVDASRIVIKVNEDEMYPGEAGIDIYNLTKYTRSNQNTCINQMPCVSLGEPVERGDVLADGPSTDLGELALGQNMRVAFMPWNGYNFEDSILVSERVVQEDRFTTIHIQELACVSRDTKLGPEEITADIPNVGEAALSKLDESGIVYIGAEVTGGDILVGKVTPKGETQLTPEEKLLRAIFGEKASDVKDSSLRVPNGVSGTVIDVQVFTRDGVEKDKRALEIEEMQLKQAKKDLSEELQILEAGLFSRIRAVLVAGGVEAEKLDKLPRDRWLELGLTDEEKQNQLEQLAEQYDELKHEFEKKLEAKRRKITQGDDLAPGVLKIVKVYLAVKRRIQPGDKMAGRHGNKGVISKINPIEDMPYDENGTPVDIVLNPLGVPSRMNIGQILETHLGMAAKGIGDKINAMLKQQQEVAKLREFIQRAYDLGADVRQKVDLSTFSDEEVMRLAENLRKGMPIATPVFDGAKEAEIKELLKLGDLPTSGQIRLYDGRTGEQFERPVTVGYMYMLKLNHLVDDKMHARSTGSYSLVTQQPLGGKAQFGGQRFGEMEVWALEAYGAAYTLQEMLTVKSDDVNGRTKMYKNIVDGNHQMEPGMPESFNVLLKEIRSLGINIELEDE
Chain of E. coli RNA polymerase (P0A8T7 whole entry partner): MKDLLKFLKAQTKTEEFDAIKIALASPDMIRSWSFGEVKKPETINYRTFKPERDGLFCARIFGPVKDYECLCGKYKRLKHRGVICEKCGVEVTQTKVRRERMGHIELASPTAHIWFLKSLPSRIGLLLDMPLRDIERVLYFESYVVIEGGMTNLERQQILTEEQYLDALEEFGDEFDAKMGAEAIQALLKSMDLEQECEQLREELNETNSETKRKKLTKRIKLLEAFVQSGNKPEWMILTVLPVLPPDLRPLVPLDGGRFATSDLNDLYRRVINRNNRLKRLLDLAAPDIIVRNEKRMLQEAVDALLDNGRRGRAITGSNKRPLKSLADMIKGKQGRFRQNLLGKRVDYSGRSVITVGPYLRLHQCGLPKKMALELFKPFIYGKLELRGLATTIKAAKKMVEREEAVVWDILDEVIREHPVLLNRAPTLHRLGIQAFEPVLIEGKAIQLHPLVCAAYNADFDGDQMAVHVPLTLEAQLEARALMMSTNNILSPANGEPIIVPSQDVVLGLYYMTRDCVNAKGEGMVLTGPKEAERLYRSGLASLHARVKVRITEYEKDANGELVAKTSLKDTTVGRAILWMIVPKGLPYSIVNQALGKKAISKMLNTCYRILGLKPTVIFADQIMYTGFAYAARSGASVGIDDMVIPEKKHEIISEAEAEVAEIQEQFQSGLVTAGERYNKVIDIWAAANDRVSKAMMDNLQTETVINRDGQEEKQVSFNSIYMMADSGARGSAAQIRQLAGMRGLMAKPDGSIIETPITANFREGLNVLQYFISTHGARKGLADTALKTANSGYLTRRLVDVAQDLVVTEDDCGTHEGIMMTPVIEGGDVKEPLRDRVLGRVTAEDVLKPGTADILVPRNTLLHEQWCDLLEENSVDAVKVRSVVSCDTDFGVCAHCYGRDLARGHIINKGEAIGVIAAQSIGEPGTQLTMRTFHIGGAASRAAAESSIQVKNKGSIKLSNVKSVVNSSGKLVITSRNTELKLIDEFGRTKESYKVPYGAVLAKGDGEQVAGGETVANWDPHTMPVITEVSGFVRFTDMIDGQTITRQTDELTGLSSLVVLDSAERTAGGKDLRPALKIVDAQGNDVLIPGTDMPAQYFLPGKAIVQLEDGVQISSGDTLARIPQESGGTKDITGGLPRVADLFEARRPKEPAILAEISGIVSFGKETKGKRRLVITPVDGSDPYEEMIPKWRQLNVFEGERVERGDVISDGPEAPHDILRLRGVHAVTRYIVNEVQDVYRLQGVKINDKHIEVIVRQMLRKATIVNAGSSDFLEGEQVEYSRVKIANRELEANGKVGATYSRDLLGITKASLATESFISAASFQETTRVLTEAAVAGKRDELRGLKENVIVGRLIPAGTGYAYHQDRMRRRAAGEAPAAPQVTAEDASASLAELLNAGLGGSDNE
Chain of E. coli RNA polymerase (P0A7Z4 whole entry partner): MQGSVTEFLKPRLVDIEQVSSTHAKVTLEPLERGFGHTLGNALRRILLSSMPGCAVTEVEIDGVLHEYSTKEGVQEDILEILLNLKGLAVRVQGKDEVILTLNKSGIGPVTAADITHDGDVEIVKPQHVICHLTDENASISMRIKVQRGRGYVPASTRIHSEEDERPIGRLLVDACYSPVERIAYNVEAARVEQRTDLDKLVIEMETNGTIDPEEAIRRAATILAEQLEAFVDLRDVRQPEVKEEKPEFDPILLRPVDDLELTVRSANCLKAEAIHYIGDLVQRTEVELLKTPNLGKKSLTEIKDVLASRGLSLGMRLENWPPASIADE
Chain of E. coli RNA polymerase (P0A800 2-91 partner limits assumed): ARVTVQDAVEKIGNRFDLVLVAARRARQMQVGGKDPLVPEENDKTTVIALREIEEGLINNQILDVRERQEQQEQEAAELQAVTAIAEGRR

Row | SMILES | zone of inhibition at 250 µM (B. subtilis) [mm] | % inhibition (E. coli RNA polymerase; 0.1 μmole/ml.) [%] | % inhibition (AKR cells) [%] | % inhibition [1] [%] | MIC (S. lutea) [mg/L] | % inhibition [2] [%] | % inhibition (E. coli RNA polymerase; 0.01 μmole/ml. (Streptovaricin C)) [%]
1 | COC(=O)C(C(O)C(C)C=O)C(OC(C)=O)C(C)C(O)C(C)(O)C=C(C)C1=C2C(=C(C)C(=O)c3c(O)c(NC(=O)C(C)=CC=CC(C)=O)c(C)c(OC(C)=O)c32)OCO1 (centres unmarked) [Isostreptoval A] | 16 | 21 | 10.7 | 7.8 | 80 (≈ 96.9 µM) | – | –
2 | COC(=O)C(C(O)C(C)C=O)C(O)C(C)C(O)C(C)(O)C=C(C)C1=C2C(=C(C)C(=O)c3c(O)c(NC(=O)C(C)=CC=CC(C)=O)c(C)c(OC(C)=O)c32)OCO1 (centres unmarked) [Isostreptoval G] | – | 52 | – | – | – | – | –
3 | CC(=O)C=CC=C(C)C(=O)Nc1c(C)c(OC(C)=O)c2c(c1O)C(=O)C(C)=C1OCOC(C(C)=CC(C)=O)=C12 [Prestreptovarone] | – | 0 | – | 60.1 | – | 35.4 | –
4 | COC(=O)C1C(OC(C)=O)C(C)C(O)OC1C(C)C(O)C(C)(O)C=CC=C(C)C(=O)Nc1c(C)c(OC(C)=O)c2c(c1O)C(=O)C(C)=C1OCOC(C(C)=CC(C)=O)=C12 (centres unmarked) [Streptoval A] | 17 | 35 | – | 100.0 | 80 (≈ 96.9 µM) | – | –
5 | COC(=O)C1C(OC(C)=O)C(C)C(O)OC1C(C)C(O)C(C)C=CC=C(C)C(=O)Nc1c(C)c(OC(C)=O)c2c(c1O)C(=O)C(C)=C1OCOC(C(C)=CC(C)=O)=C12 (centres unmarked) [Streptoval B] | – | – | – | 99.0 | – | – | –
6 | COC(=O)C1C(OC(C)=O)C(C)C(OC(C)=O)OC1C(C)C(OC(C)=O)C(C)C=CC=C(C)C(=O)Nc1c(C)c(OC(C)=O)c2c(c1O)C(=O)C(C)=C1OCOC(C(C)=CC(C)=O)=C12 (centres unmarked) [Streptoval C Triacetate-A] | – | – | – | 86.2 | – | – | –
7 | COC(=O)C(C(OC(C)=O)C(C)C=O)C(OC(C)=O)C(C)C(OC(C)=O)C(C)C=CC=C(C)C(=O)Nc1c(C)c(OC(C)=O)c2c(c1O)C(=O)C(C)=C1OCOC(C(C)=CC(C)=O)=C12 (centres unmarked) [Streptoval C Triacetate-B] | – | – | – | 97.3 | – | – | –
8 | COC(=O)C1C(O)C(C)C(O)OC1C(C)C(O)C(C)C=CC=C(C)C(=O)Nc1c(C)c(OC(C)=O)c2c(c1O)C(=O)C(C)=C1OCOC(C(C)=CC(C)=O)=C12 (centres unmarked) [Streptoval C] | 0 | – | 2.1 | 84.0 | – | 9.2 | –
9 | COC(=O)C1C(O)C(C)C(O)OC1C(C)C(=O)C(C)C=CC=C(C)C(=O)Nc1c(C)c(OC(C)=O)c2c(c1O)C(=O)C(C)=C1OCOC(C(C)=CC(C)=O)=C12 (centres unmarked) [Streptoval E] | 0 | 7 | – | 95.7 | 75 (≈ 97.9 µM) | – | –
10 | CC(=O)C=C(C)C1=C2C(=C(C)C(=O)c3c(O)c(NC(=O)C(C)=CC=CC(C)(O)C4OC(=O)C5C(O)C(C)C(O)OC5C4C)c(C)c(OC(C)=O)c32)OCO1 (centres unmarked) [Streptoval F] | – | – | – | 8.3 | – | – | –
11 | COC(=O)C1C(OC(C)=O)C(C)C(OC(C)=O)C(C)(O)C=CC=C(C)C(=O)Nc2c(C)c(OC(C)=O)c3c(c2O)C(=O)C(C)=C2OCOC(=C23)C(C)=CC(C)(O)C(OC(C)=O)C(C)C1OC(C)=O (centres unmarked) [Streptovaricin A Triacetate] | – | – | – | 76.0 | – | – | –
12 | COC(=O)C1C(OC(C)=O)C(C)C(OC(C)=O)C(C)C=CC=C(C)C(=O)Nc2c(C)c(OC(C)=O)c3c(c2O)C(=O)C(C)=C2OCOC(=C23)C(C)=CC(C)(O)C(OC(C)=O)C(C)C1OC(C)=O (centres unmarked) [Streptovaricin C Tetra-acetate] | – | – | – | 80.0 | – | – | –
13 | COC(=O)C1C(OC(C)=O)C(C)C(OC(C)=O)C(C)C=CC=C(C)C(=O)Nc2c(C)c(OC(C)=O)c3c(c2O)C(=O)C(C)=C2OCOC(=C23)C(C)=CC(C)(O)C(O)C(C)C1OC(C)=O (centres unmarked) [Streptovaricin C Triacetate] | – | – | – | 79.0 | – | – | –
14 | COC(=O)C1C(O)C(C)C(O)C(C)C=CC=C(C)C(=O)Nc2c(C)c(OC(C)=O)c3c(c2O)C(=O)C(C)=C2OCOC(=C23)C(C)=CC(C)(O)C(O)C(C)C1O (centres unmarked) [Streptovaricin C, reference compound] | 22 | – | 8.9 | 47.9 | – | 0 | 66
15 | CC(=O)C=C(C)C1=C2C(=C(C)C(=O)c3c(O)c(NC(=O)C(C)=O)c(C)c(OC(C)=O)c32)OCO1 [Streptovarone] | 0 | 0 | 0.4 | 59.4 | – | 12.2 | –
